Laboratory results taken from PubChem BioAssay (NCI).
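Where inhibition never reached the appropriate level, the endpoint shown equals the highest concentration tested. Otherwise, values were interpolated linearly from a five-concentration, 48-hour dose response in 96-well plates. Definition used: TGI = concentration required for complete inhibition of growth.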

How the values were obtained:
Assay in all cases: inhibition of tumour cell growth, NCI panel, 48 h
DU-145 prostate = system: DU-145 prostate
HCC-2998 colon = system: HCC-2998 colon
NCI-H226 lung = system: NCI-H226 lung
OVCAR-3 ovarian = system: OVCAR-3 ovarian
MDA-MB-231 breast = system: MDA-MB-231 breast
MDA-N = system: MDA-N
HT29 colon = system: HT29 colon
T-47D breast = system: T-47D breast
SW-620 colon = system: SW-620 colon
PC-3 prostate = system: PC-3 prostate
SNB-19 CNS = system: SNB-19 CNS
IGROV1 ovarian = system: IGROV1 ovarian
M14 melanoma = system: M14 melanoma

Work on `CC(Cc1ccc2c(c1)OCO2)N(C)C(=O)C1=CCN(C)CC1` (stereo not given) yielded a TGI (DU-145 prostate) of over 100 µM, a TGI (HCC-2998 colon) of over 100 µM and a TGI (NCI-H226 lung) of over 100 µM. For the same molecule, the TGI (OVCAR-3 ovarian) was over 100 µM, the TGI (MDA-MB-231 breast) was over 100 µM and the TGI (MDA-N) was over 100 µM. The TGI (HT29 colon) was over 100 µM, the TGI (T-47D breast) was over 100 µM and the TGI (SW-620 colon) was over 100 µM. For the same molecule, the TGI (PC-3 prostate) was over 100 µM, the TGI (SNB-19 CNS) was over 100 µM and the TGI (IGROV1 ovarian) was over 100 µM. It also gave a TGI (M14 melanoma) of over 100 µM.

In the case of `CC1=C(C(=O)NC(C)(C)C)CC(C(=O)NC(C)(C)C)C(C)N1` (stereo not given), the TGI (DU-145 prostate) was over 100 µM, the TGI (HCC-2998 colon) was over 100 µM and the TGI (NCI-H226 lung) was over 100 µM. For the same molecule, the TGI (OVCAR-3 ovarian) was over 100 µM, the TGI (MDA-MB-231 breast) was over 100 µM and the TGI (MDA-N) was over 100 µM. The TGI (HT29 colon) was over 100 µM, the TGI (T-47D breast) was over 100 µM and the TGI (SW-620 colon) was over 100 µM. For the same molecule, the TGI (PC-3 prostate) was over 100 µM, the TGI (SNB-19 CNS) was over 100 µM and the TGI (IGROV1 ovarian) was over 100 µM. The TGI (M14 melanoma) was over 100 µM.

In the case of `C=CC[C@H]1[C@H](O[Si](C)(C)C(C)(C)C)C=CC(=O)[C@@H]1CC(=O)OCC`, the TGI (DU-145 prostate) was 32.8 µM, the TGI (HCC-2998 colon) was 25.5 µM and the TGI (NCI-H226 lung) was 29.2 µM. For the same molecule, the TGI (OVCAR-3 ovarian) was 26.4 µM, the TGI (MDA-MB-231 breast) was 27.6 µM and the TGI (MDA-N) was 29.1 µM. For the same molecule, the TGI (HT29 colon) was 21.2 µM, the TGI (T-47D breast) was 24.7 µM and the TGI (SW-620 colon) was 33 µM. It also gave a TGI (PC-3 prostate) of 21.3 µM, a TGI (SNB-19 CNS) of 25.7 µM and a TGI (IGROV1 ovarian) of 32.8 µM. It also gave a TGI (M14 melanoma) of 25.3 µM.

Molecule `O=c1c(Sc2ncccn2)c(Sc2ncccn2)cnn1CCl` has a TGI (DU-145 prostate) of 9.23 µM, a TGI (HCC-2998 colon) of 24 µM and a TGI (NCI-H226 lung) of over 76.8 µM. For the same molecule, the TGI (OVCAR-3 ovarian) was 10.8 µM, the TGI (MDA-MB-231 breast) was 19 µM and the TGI (MDA-N) was 5.59 µM. The TGI (HT29 colon) was 4.67 µM, the TGI (T-47D breast) was 14.2 µM and the TGI (SW-620 colon) was 17.9 µM. The TGI (PC-3 prostate) was 8.79 µM, the TGI (SNB-19 CNS) was 32.8 µM and the TGI (IGROV1 ovarian) was 4.76 µM. It also gave a TGI (M14 melanoma) of 4.76 µM.

`O=C(O)CCc1nc2cc3ccccc3cc2[nH]c1=O` was tested, and the TGI (DU-145 prostate) was over 100 µM, the TGI (HCC-2998 colon) was over 100 µM and the TGI (NCI-H226 lung) was over 100 µM. For the same molecule, the TGI (OVCAR-3 ovarian) was over 100 µM, the TGI (MDA-MB-231 breast) was over 100 µM and the TGI (MDA-N) was over 100 µM. It also gave a TGI (HT29 colon) of over 100 µM, a TGI (T-47D breast) of over 100 µM and a TGI (SW-620 colon) of over 100 µM. The TGI (PC-3 prostate) was over 100 µM, the TGI (SNB-19 CNS) was over 100 µM and the TGI (IGROV1 ovarian) was over 100 µM. It also gave a TGI (M14 melanoma) of over 100 µM.

`CC1(C)CC2(C)ON=C(c3ccccc3)N2c2ccccc2N1` (stereo not given) was tested, and the TGI (DU-145 prostate) was over 100 µM, the TGI (HCC-2998 colon) was over 100 µM and the TGI (NCI-H226 lung) was 42.8 µM. For the same molecule, the TGI (OVCAR-3 ovarian) was 33.7 µM, the TGI (MDA-MB-231 breast) was 28.7 µM and the TGI (MDA-N) was 47.9 µM. The TGI (HT29 colon) was 29.9 µM, the TGI (T-47D breast) was 56.7 µM and the TGI (SW-620 colon) was over 100 µM. It also gave a TGI (PC-3 prostate) of 42.1 µM, a TGI (SNB-19 CNS) of 68.1 µM and a TGI (IGROV1 ovarian) of over 100 µM. For the same molecule, the TGI (M14 melanoma) was 40.6 µM.

For `CCOP(=O)(OCC)C(=C1C=C(C(C)(C)C)C(=O)C(C(C)(C)C)=C1)P(=O)(OCC)OCC`, the TGI (DU-145 prostate) was over 10 µM, the TGI (HCC-2998 colon) was over 10 µM and the TGI (NCI-H226 lung) was over 10 µM. It also gave a TGI (OVCAR-3 ovarian) of over 5.55 µM, a TGI (MDA-MB-231 breast) of over 10 µM and a TGI (MDA-N) of over 9.4 µM. For the same molecule, the TGI (HT29 colon) was over 10 µM, the TGI (T-47D breast) was 4.04 µM and the TGI (SW-620 colon) was 3.55 µM. The TGI (PC-3 prostate) was over 10 µM, the TGI (SNB-19 CNS) was over 10 µM and the TGI (IGROV1 ovarian) was over 10 µM. For the same molecule, the TGI (M14 melanoma) was 4.11 µM.

`Oc1ccc(Cn2c(-c3ccc(O)cc3)nc3ccccc32)cc1` showed a TGI (DU-145 prostate) of over 100 µM, a TGI (HCC-2998 colon) of over 100 µM and a TGI (NCI-H226 lung) of over 100 µM. The TGI (OVCAR-3 ovarian) was over 100 µM, the TGI (MDA-MB-231 breast) was over 100 µM and the TGI (MDA-N) was over 100 µM. For the same molecule, the TGI (HT29 colon) was over 100 µM, the TGI (T-47D breast) was over 100 µM and the TGI (SW-620 colon) was over 100 µM. The TGI (PC-3 prostate) was over 100 µM, the TGI (SNB-19 CNS) was over 100 µM and the TGI (IGROV1 ovarian) was over 100 µM. The TGI (M14 melanoma) was over 100 µM.

Molecule `CCOC(=O)NC(=S)NC(C)c1ccccc1` (stereo not given) has a TGI (DU-145 prostate) of over 100 µM, a TGI (HCC-2998 colon) of over 100 µM and a TGI (NCI-H226 lung) of over 100 µM. The TGI (OVCAR-3 ovarian) was over 100 µM, the TGI (MDA-MB-231 breast) was over 100 µM and the TGI (MDA-N) was over 100 µM. For the same molecule, the TGI (HT29 colon) was over 100 µM, the TGI (T-47D breast) was over 100 µM and the TGI (SW-620 colon) was over 100 µM. The TGI (PC-3 prostate) was over 100 µM, the TGI (SNB-19 CNS) was over 100 µM and the TGI (IGROV1 ovarian) was over 100 µM. It also gave a TGI (M14 melanoma) of over 100 µM.

`O=C1c2c(ccc3c2CCCC3)CC1Cc1ccc2c(c1)CCCC2` (stereo not given) showed a TGI (DU-145 prostate) of over 100 µM, a TGI (HCC-2998 colon) of over 100 µM and a TGI (NCI-H226 lung) of over 100 µM. It also gave a TGI (OVCAR-3 ovarian) of over 100 µM, a TGI (MDA-MB-231 breast) of over 100 µM and a TGI (MDA-N) of over 100 µM. The TGI (HT29 colon) was over 100 µM, the TGI (T-47D breast) was 9.84 µM and the TGI (SW-620 colon) was over 100 µM. The TGI (PC-3 prostate) was over 100 µM, the TGI (SNB-19 CNS) was over 100 µM and the TGI (IGROV1 ovarian) was over 100 µM. It also gave a TGI (M14 melanoma) of over 100 µM.

In the case of `CC1=C(C)C(=O)C(C2=C(C3=CC(=O)C(C)=C(C)C3=O)C(=O)c3ccccc3C2=O)=CC1=O`, the TGI (DU-145 prostate) was 8.06 µM, the TGI (HCC-2998 colon) was 16.3 µM and the TGI (NCI-H226 lung) was 21 µM. It also gave a TGI (OVCAR-3 ovarian) of 15.8 µM, a TGI (MDA-MB-231 breast) of 6.23 µM and a TGI (MDA-N) of 3.6 µM. For the same molecule, the TGI (HT29 colon) was 5.47 µM, the TGI (T-47D breast) was 12.4 µM and the TGI (SW-620 colon) was 4.99 µM. It also gave a TGI (PC-3 prostate) of 7.83 µM, a TGI (SNB-19 CNS) of 25.8 µM and a TGI (IGROV1 ovarian) of 7.14 µM. For the same molecule, the TGI (M14 melanoma) was 3.64 µM.

For `CCCc1cc(-c2ccc(-c3cc(CCC)c(C=O)[nH]3)s2)[nH]c1C=O`, the TGI (DU-145 prostate) was over 100 µM, the TGI (HCC-2998 colon) was 22.9 µM and the TGI (NCI-H226 lung) was over 100 µM. The TGI (OVCAR-3 ovarian) was over 100 µM, the TGI (MDA-MB-231 breast) was over 100 µM and the TGI (MDA-N) was over 100 µM. The TGI (HT29 colon) was over 19.9 µM, the TGI (T-47D breast) was over 100 µM and the TGI (SW-620 colon) was over 100 µM. The TGI (PC-3 prostate) was over 100 µM, the TGI (SNB-19 CNS) was over 100 µM and the TGI (IGROV1 ovarian) was over 100 µM. For the same molecule, the TGI (M14 melanoma) was over 100 µM.

`CN1CCCC(C(=O)OCC(=O)C2(O)CCC3C4CCC5=CC(=O)CCC5(C)C4C(O)CC32C)C1` (stereo not given) showed a TGI (DU-145 prostate) of 45.1 µM, a TGI (HCC-2998 colon) of 22.1 µM and a TGI (NCI-H226 lung) of 33.9 µM. The TGI (OVCAR-3 ovarian) was 32.8 µM, the TGI (MDA-MB-231 breast) was 19.2 µM and the TGI (MDA-N) was 26.8 µM. For the same molecule, the TGI (HT29 colon) was 27 µM, the TGI (T-47D breast) was 34.5 µM and the TGI (SW-620 colon) was over 79.2 µM. It also gave a TGI (PC-3 prostate) of 30.7 µM, a TGI (SNB-19 CNS) of 30.9 µM and a TGI (IGROV1 ovarian) of over 60.1 µM. For the same molecule, the TGI (M14 melanoma) was 59.3 µM.

Molecule `COc1ccc(N2C(=O)C3c4[nH]c5ccc(OCc6ccccc6)cc5c4C4CCC(C(C)C)CC4C3C2=O)cc1` (stereo not given) has a TGI (DU-145 prostate) of over 100 µM, a TGI (HCC-2998 colon) of over 100 µM and a TGI (NCI-H226 lung) of 42.9 µM. For the same molecule, the TGI (OVCAR-3 ovarian) was over 100 µM, the TGI (MDA-MB-231 breast) was 37.9 µM and the TGI (MDA-N) was over 100 µM. For the same molecule, the TGI (HT29 colon) was over 100 µM, the TGI (T-47D breast) was over 100 µM and the TGI (SW-620 colon) was over 100 µM. The TGI (PC-3 prostate) was over 100 µM, the TGI (SNB-19 CNS) was 34.9 µM and the TGI (IGROV1 ovarian) was over 80.6 µM. The TGI (M14 melanoma) was over 100 µM.

`CC(=O)/C(=C(/Br)I)c1ccccc1` showed a TGI (DU-145 prostate) of 31.4 µM, a TGI (HCC-2998 colon) of 12.3 µM and a TGI (NCI-H226 lung) of 27.2 µM. The TGI (OVCAR-3 ovarian) was 17.9 µM, the TGI (MDA-MB-231 breast) was 28.7 µM and the TGI (MDA-N) was 14.8 µM. It also gave a TGI (HT29 colon) of 13.8 µM, a TGI (T-47D breast) of 13.3 µM and a TGI (SW-620 colon) of 11.4 µM. For the same molecule, the TGI (PC-3 prostate) was 32.2 µM, the TGI (SNB-19 CNS) was 37.5 µM and the TGI (IGROV1 ovarian) was 49.3 µM. The TGI (M14 melanoma) was 21.3 µM.
